Results as given in US20250154145A1, “OXER1 ANTAGONISTS AND USES THEREOF” (Fairhaven Pharmaceuticals Ins., priority 2021, published 2025).

These molecules were tested on neutrophils (assay: Neutrophil calcium flux assay (5-OXO-ETE-stimulated, Indo-1 fluorescence)). Details: Neutrophil, 5-OXO-ETE-stimulated calcium flux.
Format: cell-based
In short: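 Indo-1-loaded neutrophils (5×10^6 cells/ml, 30 min at 37 °C) in HBSS with Ca/Mg and HEPES, pre-incubated 5 min with antagonist or buffer. Stimulated with 5-OXO-ETE added at 200 nM (4× stock); fluorescence (ex 331/em 410 nm) read every 5 s for 30 cycles, expressed as net fluorescence.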
For C[C@@H](CC(=O)O)CC(=O)c1c(CCCCOCc2cccc(OC(F)(F)F)c2)n(C)c2ncc(C#N)cc12 [Compound I-390], the IC50 was > 0.3 µM.
For COc1cc(COCCCCc2c(C(=O)CC(C)CC(=O)O)c3cc(C#N)cnc3n2C)ccc1F (stereo not drawn) [Compound I-391], the IC50 was < 0.1 µM.
In the case of CC(CC(=O)O)CC(=O)c1c(CCCCOCc2cccc(C#N)c2)n(C)c2ncccc12 (stereo not drawn) [Compound I-392], the IC50 is reported as 0.1 to 0.3 µM.
CC(CC(=O)O)CC(=O)c1c(CCCCOCc2cncnc2)n(C)c2ccc(C#N)cc12 (stereo not drawn) [Compound I-393] was tested, and the IC50 was > 0.3 µM.
With C[C@H](CC(=O)O)CC(=O)c1c(CCCCOCc2cccc(C#N)c2)n(C)c2cnccc12 [Compound I-394] the IC50 was < 0.1 µM.
C[C@@H](CC(=O)O)CC(=O)c1c(CCCCOCc2cccc(C#N)c2)n(C)c2cnccc12 [Compound I-395] was tested, and the IC50 was > 0.3 µM.
In the case of C[C@H](CC(=O)O)CC(=O)c1c(CCCCOCc2cccc(C#N)c2)n(C)c2ccncc12 [Compound I-396], the IC50 is reported as < 0.1 µM.
C[C@@H](CC(=O)O)CC(=O)c1c(CCCCOCc2cccc(C#N)c2)n(C)c2ccncc12 [Compound I-397] was tested, and the IC50 was > 0.3 µM.
With CC(CC(=O)O)CC(=O)c1c(CCCCOCc2cccc(C#N)c2)n(C)c2cccnc12 (stereo not drawn) [Compound I-398] the IC50 was > 0.3 µM.
CC(CC(=O)O)CC(=O)c1c(C[C@H]2CC[C@@H](OCc3cccc(Cl)c3)CC2)n(C)c2ncc(C#N)cc12 (stereo partly drawn) [Compound I-399] was tested, and the IC50 was > 0.3 µM.
CC(CC(=O)O)CC(=O)c1c2cc(C#N)cnc2n(C)c1[C@H]1CC[C@@H](COCc2cccc(Cl)c2)CC1 (stereo partly drawn) [Compound I-400] was tested, and the IC50 was > 0.3 µM.
With CC(CC(=O)O)CC(=O)c1c2cc(C#N)cnc2n(C)c1[C@H]1CC[C@H](COCc2cccc(Cl)c2)CC1 (stereo partly drawn) [Compound I-401] the IC50 was > 0.3 µM.
Molecule CC(CC(=O)O)CC(=O)c1c(C[C@H]2CC[C@H](OCc3cccc(Cl)c3)CC2)n(C)c2ncc(C#N)cc12 (stereo partly drawn) [Compound I-402] has an IC50 of 0.1 to 0.3 µM.
COc1cccc(COCCCCc2c(C(=O)CC(C)CC(=O)O)c3cc(Cl)cnc3n2C)c1 (stereo not drawn) [Compound I-403] showed an IC50 of 0.1 to 0.3 µM.
With C[C@H](CC(=O)O)CC(=O)c1c(CCCCOCc2cccc(C#N)c2)n(C)c2cnc(Cl)cc12 [Compound I-404] the IC50 was < 0.1 µM.
For C[C@@H](CC(=O)O)CC(=O)c1c(CCCCOCc2cccc(C#N)c2)n(C)c2cnc(Cl)cc12 [Compound I-405], the IC50 was > 0.3 µM.
With C[C@@H](CC(=O)O)CC(=O)c1c(CCCCOCc2cccc(Cl)c2)n(C)c2cnccc12 [Compound I-406] the IC50 was > 0.3 µM.
With C[C@H](CC(=O)O)CC(=O)c1c(CCCCOCc2cccc(Cl)c2)n(C)c2cnccc12 [Compound I-407] the IC50 was < 0.1 µM.
C[C@H](CC(=O)O)CC(=O)c1c(CCCCOCc2cccc(OC(F)(F)F)c2)n(C)c2cnccc12 [Compound I-408] was tested, and the IC50 was < 0.1 µM.
C[C@@H](CC(=O)O)CC(=O)c1c(CCCCOCc2cccc(OC(F)(F)F)c2)n(C)c2cnccc12 [Compound I-409] was tested, and the IC50 was > 0.3 µM.
With C[C@H](CC(=O)O)CC(=O)c1c(CCCCOCc2cccc(Cl)c2)n(C)c2cnc(Cl)cc12 [Compound I-410] the IC50 was < 0.1 µM.
With C[C@@H](CC(=O)O)CC(=O)c1c(CCCCOCc2cccc(Cl)c2)n(C)c2cnc(Cl)cc12 [Compound I-411] the IC50 was > 0.3 µM.
For CC(CC(=O)O)CC(=O)c1c(CCCCOCc2cccc(OC(F)(F)F)c2)n(C)c2cnc(Cl)cc12 (stereo not drawn) [Compound I-412], the IC50 was < 0.1 µM.
For C[C@H](CC(=O)O)CC(=O)c1c(CCCCOCc2cccc(C#N)c2)n(C)c2cc(F)ccc12 [Compound I-413], the IC50 was < 0.1 µM.
In the case of CC(CC(=O)O)CC(=O)c1c(CCCCOCc2cccc(C#N)c2)n(C)c2c(F)cc(C#N)cc12 (stereo not drawn) [Compound I-414], the IC50 is reported as > 0.3 µM.
With C[C@H](CC(=O)O)CC(=O)c1c(CCCCOCc2cccc(C#N)c2)n(C)c2c(F)cc(Cl)cc12 [Compound I-415] the IC50 was > 0.3 µM.
C[C@H](CC(=O)O)CC(=O)c1c(CCCCOCc2cccc(C#N)c2)n(C)c2ncc(F)cc12 [Compound I-416] gave an IC50 of 0.1 to 0.3 µM.
With CC(CC(=O)O)CC(=O)c1c(CCCCOCc2cccc(C#N)c2)n(C)c2ncc(C(F)(F)F)cc12 (stereo not drawn) [Compound I-417] the IC50 was 0.1 to 0.3 µM.
With C[C@H](CC(=O)O)CC(=O)c1c(CCCCOCc2cccc(C#N)c2)n(C)c2nc(F)c(Cl)cc12 [Compound I-418] the IC50 was < 0.1 µM.
COc1cccc(CCCCC#Cc2c(C(=O)CC(C)CC(=O)O)c3cc(C#N)cnc3n2C)c1 (stereo not drawn) [Compound I-419] was tested, and the IC50 was > 0.3 µM.
For [2H]C([2H])([2H])n1c(CCCCOCc2ccccc2)c(C(=O)CC(C)CC(=O)O)c2cc(C#N)cnc21 (stereo not drawn) [Compound I-420], the IC50 was < 0.1 µM.
With [2H]C([2H])([2H])n1c(CCCCOCc2cccc(Cl)c2)c(C(=O)C[C@H](C)CC(=O)O)c2cc(C#N)ccc21 [Compound I-421] the IC50 was < 0.1 µM.
With C[C@H](CC(=O)O)CC(=O)c1c(CCCCCOCc2ccccc2)n(C)c2ncc(C#N)cc12 [Compound I-422] the IC50 was 0.1 to 0.3 µM.
For C[C@@H](CC(=O)O)CC(=O)c1c(CCCCCOCc2ccccc2)n(C)c2ncc(C#N)cc12 [Compound I-423], the IC50 was > 0.3 µM.
With CC(CC(=O)O)CC(=O)c1c(CCCCOCCc2ccccc2)n(C)c2ncc(C#N)cc12 (stereo not drawn) [Compound I-424] the IC50 was > 0.3 µM.
For C[C@H](CC(=O)O)CC(=O)c1c(CCCCCOCc2cccc(Cl)c2)n(C)c2ccc(C#N)cc12 [Compound I-425], the IC50 was 0.1 to 0.3 µM.
With CC(CC(=O)O)CC(=O)c1c(CCCCSCc2ccccc2)n(C)c2ncc(C#N)cc12 (stereo not drawn) [Compound I-426] the IC50 was > 0.3 µM.
For CC(CC(=O)O)CC(=O)c1c(CCCC[S+]([O-])Cc2ccccc2)n(C)c2ncc(C#N)cc12 (stereo not drawn) [Compound I-427], the IC50 was > 0.3 µM.
With CC(CC(=O)O)CC(=O)c1c(CCCCS(=O)(=O)Cc2ccccc2)n(C)c2ncc(C#N)cc12 (stereo not drawn) [Compound I-428] the IC50 was > 0.3 µM.
For CC(CC(=O)O)CC(=O)c1c(CCCCO)n(C)c2ncc(C#N)cc12 (stereo not drawn) [Compound I-429], the IC50 was > 0.3 µM.
CC(CC(=O)O)CC(=O)c1c(CCCOCC(F)(F)c2cccc(Cl)c2)n(C)c2ccc(Cl)cc12 (stereo not drawn) [Compound I-430] was tested, and the IC50 was < 0.1 µM.
With C[C@@H](CC(=O)O)CC(=O)c1c(CCCCO[C@@H](C)c2ccccc2)n(C)c2ncc(C#N)cc12 [Compound I-431] the IC50 was > 0.3 µM.
C[C@H](CC(=O)O)CC(=O)c1c(CCCCO[C@@H](C)c2ccccc2)n(C)c2ncc(C#N)cc12 [Compound I-432] was tested, and the IC50 was < 0.1 µM.
With C[C@@H](CC(=O)O)CC(=O)c1c(CCCCO[C@H](C)c2ccccc2)n(C)c2ncc(C#N)cc12 [Compound I-433] the IC50 was > 0.3 µM.
C[C@H](CC(=O)O)CC(=O)c1c(CCCCO[C@H](C)c2ccccc2)n(C)c2ncc(C#N)cc12 [Compound I-434] was tested, and the IC50 was < 0.1 µM.
In the case of CC(CC(=O)O)CC(=O)c1c(CCCC(C)OCc2ccccc2)n(C)c2ncc(C#N)cc12 (stereo not drawn) [Compound I-435], the IC50 is reported as 0.1 to 0.3 µM.
With CC(C)[C@H](CC(=O)O)CC(=O)c1c(CCCCOCc2ccccc2)n(C)c2ncc(C#N)cc12 [Compound I-436] the IC50 was > 0.3 µM.
CC(C)[C@@H](CC(=O)O)CC(=O)c1c(CCCCOCc2ccccc2)n(C)c2ncc(C#N)cc12 [Compound I-437] was tested, and the IC50 was > 0.3 µM.
For CC[C@H](CC(=O)O)CC(=O)c1c(CCCCOCc2ccccc2)n(C)c2ncc(C#N)cc12 [Compound I-438], the IC50 was > 0.3 µM.
CC[C@@H](CC(=O)O)CC(=O)c1c(CCCCOCc2ccccc2)n(C)c2ncc(C#N)cc12 [Compound I-439] was tested, and the IC50 was > 0.3 µM.
In the case of Cn1c(CCCCOCc2ccccc2)c(C(=O)CC(CC(=O)O)C(F)(F)F)c2cc(C#N)cnc21 (stereo not drawn) [Compound I-440], the IC50 is reported as > 0.3 µM.
In the case of Cn1c(CCCCOCc2ccccc2)c(C(=O)N2CC[C@H](C(=O)O)C2)c2cnccc21 [Compound I-441], the IC50 is reported as > 0.3 µM.
For Cn1c(CCCCOCc2cccc(Cl)c2)c(C(=O)N2CC[C@H](C(=O)O)C2)c2cnccc21 [Compound I-442], the IC50 was > 0.3 µM.
Work on CC(CC(=O)O)CC(=O)c1c(CCCCCOCc2cccc(Cl)c2)[nH]c2ccc(C#N)cc12 (stereo not drawn) [Compound I-443] yielded an IC50 of 0.1 to 0.3 µM.
For CC(CC(=O)O)CC(=O)c1c(CCCCOCc2cc(C#N)ccn2)n(C)c2ncc(Cl)cc12 (stereo not drawn) [Compound I-444], the IC50 was > 0.3 µM.
For CC(CC(=O)O)CC(=O)c1c(CCCCOCc2cncc(C#N)c2)n(C)c2ncc(Cl)cc12 (stereo not drawn) [Compound I-445], the IC50 was > 0.3 µM.
In the case of COc1cc(COCCCCc2c(C(=O)CC(C)CC(=O)O)c3cc(Cl)cnc3n2C)ccn1 (stereo not drawn) [Compound I-446], the IC50 is reported as > 0.3 µM.
For COc1cccc(COCCCCc2c(C(=O)CC(C)CC(=O)O)c3cc(Cl)cnc3n2C)n1 (stereo not drawn) [Compound I-447], the IC50 was > 0.3 µM.
In the case of COc1nccc(COCCCCc2c(C(=O)CC(C)CC(=O)O)c3cc(Cl)cnc3n2C)n1 (stereo not drawn) [Compound I-448], the IC50 is reported as > 0.3 µM.
With COC(=O)C[C@@H](C)CC(=O)c1c(CCCCOCc2ccccc2)n(C)c2ncc(C#N)cc12 [Compound I-449] the IC50 was > 0.3 µM.
With Cc1ccccc1COCCCCc1c(C(=O)CC(C)CC(=O)O)c2cc(C#N)cnc2n1C (stereo not drawn) [Compound I-450] the IC50 was > 0.3 µM.
C[C@H](OCCCCc1c(C(=O)N2CC[C@H](C(=O)O)C2)c2cc(C#N)cnc2n1C)c1ccccc1 [Compound I-453] was tested, and the IC50 was > 0.3 µM.
In the case of C[C@H](OCCCCc1c(C(=O)N2CC[C@H](C(=O)O)[C@H]2C)c2cc(C#N)cnc2n1C)c1ccccc1 [Compound I-454], the IC50 is reported as > 0.3 µM.
With Cn1c(CCCCCCC#CC2CC(F)(F)C2)c(C(=O)N2CC[C@H](c3noc(=O)[nH]3)C2)c2cc(C#N)cnc21 [Compound I-456] the IC50 was > 0.3 µM.
In the case of Cn1c(CCCCCCC#CC2CC(F)(F)C2)c(C(=O)N2CC[C@H](c3noc(=O)[nH]3)C2)c2cc(Br)cnc21 [Compound I-457], the IC50 is reported as > 0.3 µM.
For C[C@H](CC(=O)NCC(=O)O)CC(=O)c1c(CCCCOCc2ccccc2)n(C)c2ncc(C#N)cc12 [Compound I-459], the IC50 was > 0.3 µM.
In the case of C[C@H](CC(=O)N[C@@H](CCC(N)=O)C(=O)O)CC(=O)c1c(CCCCOCc2ccccc2)n(C)c2ncc(C#N)cc12 [Compound I-460], the IC50 is reported as > 0.3 µM.
C[C@H](CC(=O)NCCS(=O)(=O)O)CC(=O)c1c(CCCCOCc2ccccc2)n(C)c2ncc(C#N)cc12 [Compound I-461] was tested, and the IC50 was > 0.3 µM.
In the case of Cn1c(CCCCCCC#CC2CC(F)(F)C2)c(C(=O)N2CC[C@H](C(=O)NCC(=O)O)C2)c2cc(C#N)cnc21 [Compound I-462], the IC50 is reported as > 0.3 µM.
